Test results: patent publication US20260250318A1, “COMPOSITIONS AND METHODS FOR CROSSING THE BLOOD BRAIN BARRIER” (VOYAGER THERAPEUTICS, INC., priority 2022, published 2026)

System: brains, heart, liver, muscle, and DRG of the NHPs
Test: Maturation of TTM-001 and TTM-002 capsids, NGS enrichment in NHP tissues
Assay type: in vivo
Excerpt: This Example describes maturation of the AAV9 capsid variants, TTM-001 (SEQ ID NO: 981 (amino acid) and 983 (DNA), comprising SEQ ID NO: 941 (encoded by SEQ ID NO: 942)) and TTM-002 (SEQ ID NO: 982 (amino acid) and 984 (DNA), comprising SEQ ID NO: […] (encoded by SEQ ID NO: 944)) in NHPs to further enhance their transduction and biodistribution in the central nervous system as well as other tissues, and evolve the AAV capsid variants to provide further cross-species compatibility. Two approaches were used to mature the TTM-001 and TTM-002 capsid sequences in order to randomize and mutate within and around the peptide insert comprised within loop IV of the capsid variant. […] In the first maturation approach, sets of three contiguous amino acids were randomized across the mutagenesis region in the TTM-001 and TTM-002 sequences, which spanned from position 450 to position 466, numbered according to SEQ ID NO: 981 and 982. In the second maturation approach, mutagenic primers were used to introduce point mutations at a low frequency, scattered across the mutagenesis region in the TTM-001 and TTM-002 sequences ranging from position 449 to position 466, numbered according to SEQ ID NO: 981 and 982. AAV capsid variants arising from each maturation approach for TTM-001 and TTM-002 were pooled together, for subsequent testing and characterization in NHPs.
The library of pooled matured AAV capsid variants generated using the first maturation approach and the second maturation approach for the TTM-001 and TTM-002 AAV capsid variants were injected into two NHPs. […] Following RNA recovery and RT-PCR amplification, a systematic NGS enrichment analysis was performed to calculate the fold enrichment ratio relative to an AAV9 control, and the peptides comprised within the variants were identified.
Following the RNA recovery and NGS analysis from the second maturation approach, approximately 680,000 capsid variants were identified. The 680,000 matured capsid variants were then filtered based on samples with a raw virus count greater than 10 and a coefficient of variance (CV) of less than 1, which was calculated for each peptide across the brain samples taken from the two NHPs. […] Using this filtering criteria, this led to approximately 64,000 matured capsid variants.

[1] = NHP DRG, NGS, relative to AAV9 control
[2] = NHP brain, NGS, relative to AAV9 control
[3] = NHP heart, NGS, relative to AAV9 control
[4] = NHP liver DNA, NGS, relative to AAV9 control
[5] = NHP liver RNA, NGS, TTM-001 and TTM-002 matured AAV capsid variants, relative to AAV9 control
[6] = NHP muscle, NGS, relative to AAV9 control

| Sequence | Fold Enrichment relative to AAV9, DRG (NHP) [1] [fold] | Fold Enrichment relative to AAV9, Brain (NHP) [2] [fold] | Fold Enrichment relative to AAV9, Heart (NHP) [3] [fold] | Fold Enrichment relative to AAV9, Liver DNA (NHP) [4] [fold] | Fold Enrichment relative to AAV9, Liver RNA (NHP) [5] [fold] | Fold Enrichment relative to AAV9, Muscle (NHP) [6] [fold] | Fold Enrichment relative to AAV9, DRG (NHP) (NGS fold-enrichment, DRG, NHP, relative to AAV9) [fold] | Fold Enrichment relative to AAV9, Brain (NHP) (NGS fold-enrichment, brain, NHP, relative to AAV9) [fold] | Fold Enrichment relative to AAV9, Heart (NHP) (NGS fold-enrichment, heart, NHP, relative to AAV9) [fold] | Fold Enrichment relative to AAV9, Liver DNA (NHP) (NGS fold-enrichment, liver DNA, NHP, relative to AAV9) [fold] | Fold Enrichment relative to AAV9, Liver RNA (NHP) (NGS fold-enrichment, liver RNA, NHP, relative to AAV9) [fold] | Fold Enrichment relative to AAV9, Muscle (NHP) (NGS fold-enrichment, muscle, NHP, relative to AAV9) [fold] |
| --- | --- | --- | --- | --- | --- | --- | --- | --- | --- | --- | --- | --- |
| KTINGSGSPHSKWGLQQT | 0.000 | 0.000 | 0.000 | 2.639 | 17.543 | 0.000 | – | – | – | – | – | – |
| KTINGSGSPHSKAQRFKT | 0.000 | 0.000 | 0.000 | 0.139 | 30.363 | 0.000 | – | – | – | – | – | – |
| KTINGSGSPHSMCTNQQT | 0.000 | 0.000 | 0.000 | 0.392 | 13.114 | 0.000 | – | – | – | – | – | – |
| KTINGSGSPHSKAFYIQT | 0.000 | 0.000 | 0.000 | 0.239 | 17.172 | 0.000 | – | – | – | – | – | – |
| KTINGSGSPHCRVQNQQT | 0.000 | 0.000 | 0.000 | 1.203 | 31.043 | 0.000 | – | – | – | – | – | – |
| KTINGSGSPHSVKKNQQT | 0.000 | 0.000 | 0.000 | 3.908 | 48.475 | 0.000 | – | – | – | – | – | – |
| KTINGSGSPHSVRCNQQT | 0.000 | 0.000 | 0.000 | 3.912 | 15.860 | 0.000 | – | – | – | – | – | – |
| KTINGSGSPHSKIRGQQT | 0.000 | 0.000 | 0.000 | 1.584 | 18.150 | 0.000 | – | – | – | – | – | – |
| KTINGSGSPHSKAQTCRT | 0.000 | 0.000 | 0.000 | 6.369 | 26.472 | 0.000 | – | – | – | – | – | – |
| KTINGTRSPHKKAQNQQT | 0.225 | 0.700 | 0.052 | 1.152 | 14.173 | 4.082 | – | – | – | – | – | – |
| KTTRCSGSPHSKAQNQQT | 0.000 | 0.000 | 0.000 | 8.168 | 12.639 | 0.000 | – | – | – | – | – | – |
| KTINGSGSPHSTTCNQQT | 0.000 | 0.000 | 0.000 | 3.315 | 23.771 | 0.000 | – | – | – | – | – | – |
| KTINGSGSPHVYYQNQQT | 0.000 | 0.944 | 0.246 | 2.173 | 53.294 | 5.268 | – | – | – | – | – | – |
| KTINGSGSPHSKAQYSRT | 0.000 | 0.000 | 0.000 | 0.956 | 60.119 | 0.000 | – | – | – | – | – | – |
| KTINGSGSPHSKAQTHRT | 0.000 | 0.000 | 0.000 | 2.917 | 17.290 | 0.000 | – | – | – | – | – | – |
| KTINGSGSPHSKARQRQT | 0.000 | 0.000 | 0.000 | 2.205 | 56.775 | 0.000 | – | – | – | – | – | – |
| KTINGSGSPHWSYQNQQT | 0.000 | 0.000 | 0.000 | 3.751 | 28.607 | 0.000 | – | – | – | – | – | – |
| KYSMGSGSPHSKAQNQQT (peptide inserted in AAV capsid) | – | – | – | – | – | – | 0.000 | 0.000 | 0.000 | 1.587 | 10.478 | 0.000 |
| KTINGSLSPHFWAQNQQT | 0.000 | 0.000 | 0.000 | 2.041 | 43.190 | 0.000 | – | – | – | – | – | – |
| KTTRKSGSPHSKAQNQQT | 0.000 | 0.000 | 0.000 | 2.617 | 18.849 | 0.000 | – | – | – | – | – | – |
